{
  "source": "paper PMC7914897",
  "about": "“Cytotoxic Potential of a-Azepano- and 3-Amino-3,4-SeCo-Triterpenoids” (International Journal of Molecular Sciences, 2021)",
  "key": {"[1]": {"system": "UACC-257 (Melanoma)", "test": "NCI-60 screen (SRB, 48 h)", "settings": "Homo sapiens"}, "[2]": {"system": "T-47D (Breast cancer)", "test": "NCI-60 screen (SRB, 48 h)", "settings": "Homo sapiens, T47D"}, "[3]": {"system": "LOX IMVI (Melanoma)", "test": "NCI-60 screen (SRB, 48 h)", "format": "cell-based", "settings": "Homo sapiens"}, "[4]": {"system": "SR (Leukemia)", "test": "NCI-60 screen (SRB, 48 h)", "format": "cell-based"}, "[5]": {"system": "K-562 (Leukemia)", "test": "NCI-60 screen (SRB, 48 h)", "settings": "Homo sapiens"}, "[6]": {"system": "BT-549 (Breast cancer)", "test": "NCI-60 screen (SRB, 48 h)", "format": "cell-based", "settings": "Homo sapiens"}, "[7]": {"system": "SF-295 (CNS cancer)", "test": "NCI-60 screen (SRB, 48 h)", "settings": "Homo sapiens"}, "[8]": {"system": "NCI-H522 (NSC lung cancer)", "test": "NCI-60 screen (SRB, 48 h)", "settings": "Homo sapiens"}, "[9]": {"system": "DU-145 (Prostate cancer)", "test": "NCI-60 screen (SRB, 48 h)", "settings": "Homo sapiens"}, "[10]": {"system": "RXF 393 (Renal cancer)", "test": "NCI-60 screen (SRB, 48 h)", "settings": "Homo sapiens"}, "[11]": {"system": "IGROV1 (Ovarian cancer)", "test": "NCI-60 screen (SRB, 48 h)", "settings": "Homo sapiens"}, "[12]": {"system": "OVCAR-4 (Ovarian cancer)", "test": "NCI-60 screen (SRB, 48 h)", "format": "cell-based", "settings": "Homo sapiens"}, "[13]": {"system": "HCT-15 (Colon cancer)", "test": "NCI-60 screen (SRB, 48 h)", "settings": "Homo sapiens"}, "[14]": {"system": "UO-31 (Renal cancer)", "test": "NCI-60 screen (SRB, 48 h)", "settings": "Homo sapiens"}, "[15]": {"system": "A498 (Renal cancer)", "test": "NCI-60 screen (SRB, 48 h)", "settings": "Homo sapiens"}, "[16]": {"system": "KM12 (Colon cancer)", "test": "NCI-60 screen (SRB, 48 h)", "settings": "Homo sapiens"}, "[17]": {"system": "Colon Cancer subpanel", "test": "NCI-60 screen, subpanel", "settings": "Homo sapiens"}, "[18]": {"system": "NCI/ADR-RES (Ovarian cancer)", "test": "NCI-60 screen (SRB, 48 h)", "settings": "Homo sapiens"}, "[19]": {"system": "HT29 (Colon cancer)", "test": "NCI-60 screen (SRB, 48 h)", "settings": "Homo sapiens"}, "[20]": {"system": "HCT-116 (Colon cancer)", "test": "NCI-60 screen (SRB, 48 h)", "settings": "Homo sapiens"}, "[21]": {"system": "HOP-92 (NSC lung cancer)", "test": "NCI-60 screen (SRB, 48 h)", "settings": "Homo sapiens"}, "[22]": {"system": "NSC lung cancer subpanel", "test": "NCI-60 screen, subpanel", "settings": "Homo sapiens"}},
  "data": [
    {"smiles": "C=C(C)C1CCC2(CO)CCC3(C)C(CCC4C5(C)CCCNC(C)(C)C5CCC43C)C12", "note": "(stereo not shown) [Compound 1, Azepanobetulin]", "values": [
      {"measurement": "GI50", "setting": "[1]; UACC-257", "result": 1.95, "unit": "µM"},
      {"measurement": "IC (TGI)", "setting": "[1]; UACC-257, 48 h, read-out: TGI", "result": 3.73, "unit": "µM"},
      {"measurement": "CC50", "setting": "[1]; UACC-257, read-out: LC50", "result": 7.14, "unit": "µM"},
      {"measurement": "GI50", "setting": "[2]", "result": 1.73, "unit": "µM"},
      {"measurement": "IC (TGI)", "setting": "[2]; 48 h, read-out: TGI", "result": 3.71, "unit": "µM"},
      {"measurement": "CC50", "setting": "[2]; read-out: LC50", "result": 7.96, "unit": "µM"},
      {"measurement": "IC (TGI)", "setting": "[3]; 48 h", "result": 3.03, "unit": "µM"},
      {"measurement": "GI50", "setting": "[3]; read-out: GI50", "result": 1.51, "unit": "µM"},
      {"measurement": "TGI", "setting": "[4]", "result": 3.79, "unit": "µM"},
      {"measurement": "GI50", "setting": "[4]; Homo sapiens", "result": 1.59, "unit": "µM"},
      {"measurement": "GI50", "setting": "[5]; K562", "result": 1.08, "unit": "µM"},
      {"measurement": "IC (TGI)", "setting": "[5]; K562, 48 h, read-out: TGI", "result": 3.79, "unit": "µM"},
      {"measurement": "CC50", "setting": "[5]; K562, read-out: LC50", "result": "> 100", "unit": "µM"},
      {"measurement": "GI50", "setting": "[6]; BT-549", "result": 1.79, "unit": "µM"},
      {"measurement": "IC (TGI)", "setting": "[6]; BT-549, 48 h", "result": 3.46, "unit": "µM"},
      {"measurement": "GI50", "setting": "[7]; SF-295", "result": 1.66, "unit": "µM"},
      {"measurement": "IC (TGI)", "setting": "[7]; SF-295, 48 h, read-out: TGI", "result": 3.13, "unit": "µM"},
      {"measurement": "CC50", "setting": "[7]; SF-295, read-out: LC50", "result": 5.9, "unit": "µM"},
      {"measurement": "GI50", "setting": "[8]; NCI-H522", "result": 1.65, "unit": "µM"},
      {"measurement": "IC (TGI)", "setting": "[8]; NCI-H522, 48 h, read-out: TGI", "result": 3.42, "unit": "µM"},
      {"measurement": "GI50", "setting": "[9]; DU-145", "result": 3.02, "unit": "µM"},
      {"measurement": "IC (TGI)", "setting": "[9]; DU-145, 48 h, read-out: TGI", "result": 3.02, "unit": "µM"},
      {"measurement": "CC50", "setting": "[9]; DU-145, read-out: LC50", "result": 5.58, "unit": "µM"},
      {"measurement": "GI50", "setting": "[10]; RXF 393", "result": 1.68, "unit": "µM"},
      {"measurement": "IC (TGI)", "setting": "[10]; RXF 393, 48 h, read-out: TGI", "result": 3.18, "unit": "µM"},
      {"measurement": "CC50", "setting": "[10]; RXF 393, read-out: LC50", "result": 6.04, "unit": "µM"},
      {"measurement": "GI50", "setting": "[11]; IGROV-1", "result": 1.65, "unit": "µM"},
      {"measurement": "IC (TGI)", "setting": "[11]; IGROV-1, 48 h, read-out: TGI", "result": 3.26, "unit": "µM"},
      {"measurement": "CC50", "setting": "[11]; IGROV-1, read-out: LC50", "result": 6.44, "unit": "µM"},
      {"measurement": "IC (TGI)", "setting": "[12]; OVCAR-4, 48 h", "result": 2.81, "unit": "µM"},
      {"measurement": "GI50", "setting": "[12]; OVCAR-4, read-out: GI50", "result": 1.45, "unit": "µM"},
      {"measurement": "GI50", "setting": "[13]; HCT-15", "result": 1.39, "unit": "µM"},
      {"measurement": "IC (TGI)", "setting": "[13]; HCT-15, 48 h, read-out: TGI", "result": 2.77, "unit": "µM"},
      {"measurement": "CC50", "setting": "[13]; HCT-15, read-out: LC50", "result": 5.52, "unit": "µM"},
      {"measurement": "GI50", "setting": "[14]; UO-31", "result": 1.56, "unit": "µM"},
      {"measurement": "IC (TGI)", "setting": "[14]; UO-31, 48 h, read-out: TGI", "result": 2.99, "unit": "µM"},
      {"measurement": "CC50", "setting": "[14]; UO-31, read-out: LC50", "result": 5.74, "unit": "µM"},
      {"measurement": "GI50", "setting": "[15]; A498", "result": 2.17, "unit": "µM"},
      {"measurement": "IC (TGI)", "setting": "[15]; A498, 48 h, read-out: TGI", "result": 5.63, "unit": "µM"},
      {"measurement": "CC50", "setting": "[15]; A498, read-out: LC50", "result": 33, "unit": "µM"},
      {"measurement": "GI50", "setting": "[16]; KM12", "result": 1.73, "unit": "µM"},
      {"measurement": "IC (TGI)", "setting": "[16]; KM12, 48 h, read-out: TGI", "result": 3.24, "unit": "µM"},
      {"measurement": "CC50", "setting": "[16]; KM12, read-out: LC50", "result": 6.09, "unit": "µM"},
      {"measurement": "IC (TGI)", "setting": "[17]; 48 h, read-out: TGI MG_MID", "result": 3.01, "unit": "µM"},
      {"measurement": "GI50", "setting": "[17]; read-out: GI50 MG_MID", "result": 1.51, "unit": "µM"},
      {"measurement": "CC50", "setting": "[17]; read-out: LC50 MG_MID", "result": 5.98, "unit": "µM"},
      {"measurement": "GI50", "setting": "[18]", "result": 1.63, "unit": "µM"},
      {"measurement": "IC (TGI)", "setting": "[18]; 48 h, read-out: TGI", "result": 3.18, "unit": "µM"},
      {"measurement": "CC50", "setting": "[18]; read-out: LC50", "result": 6.18, "unit": "µM"},
      {"measurement": "GI50", "setting": "[19]; HT-29", "result": 1.27, "unit": "µM"},
      {"measurement": "IC (TGI)", "setting": "[19]; HT-29, 48 h, read-out: TGI", "result": 2.85, "unit": "µM"},
      {"measurement": "GI50", "setting": "[20]; HCT-116", "result": 1.29, "unit": "µM"},
      {"measurement": "activity at 10 µM", "setting": "[20]; HCT-116, 48 h, read-out: Growth % of the Most Sensitive Cell Lines", "result": -79, "unit": "%"},
      {"measurement": "IC (TGI)", "setting": "[20]; HCT-116, 48 h, read-out: TGI", "result": 2.63, "unit": "µM"},
      {"measurement": "CC50", "setting": "[20]; HCT-116, read-out: LC50", "result": 5.38, "unit": "µM"},
      {"measurement": "GI50", "setting": "[21]; HOP-92", "result": 1.73, "unit": "µM"},
      {"measurement": "IC (TGI)", "setting": "[21]; HOP-92, 48 h, read-out: TGI", "result": 3.33, "unit": "µM"},
      {"measurement": "CC50", "setting": "[21]; HOP-92, read-out: LC50", "result": 6.42, "unit": "µM"},
      {"measurement": "IC (TGI)", "setting": "[22]; 48 h, read-out: TGI MG_MID", "result": 3.35, "unit": "µM"},
      {"measurement": "GI50", "setting": "[22]; read-out: GI50 MG_MID", "result": 1.71, "unit": "µM"},
      {"measurement": "CC50", "setting": "[22]; read-out: LC50 MG_MID", "result": 6.49, "unit": "µM"}
    ]}
  ]
}
